According to PMC9146228, “Bioactivity of Novel Pyrazole-Thiazolines Scaffolds against Trypanosoma cruzi: Computational Approaches and 3D Spheroid Model on Drug Discovery for Chagas Disease” (Pharmaceutics, 2022):

Tested on: not listed separately
Assay: Cytotoxicity in vitro assay (CellTiter-Glo)
Format: cell-based
Conditions: African green monkey, Vero cells, mean ± SD
Procedure: Vero cells, obtained from the Rio de Janeiro Cell Bank (BCRJ code 0245), were dissociated with trypsin–EDTA solution (0.025%), and maintained in RPMI 1640 medium supplemented with 10% fetal bovine serum (FBS) at 37 °C in a humidified atmosphere of 5% CO2.
The compound toxicity was evaluated in Vero cell cultures. Briefly, Vero cells were seeded in 96-well white culture plates at a density of 1.5 × 10^4 cells/well for 24 h at 37 °C and 5% CO2. Thereafter, the cell monolayers were washed with phosphate-buffered saline (PBS) and 200 μL of fresh medium with a serial dilution of the pyrazole-thiazoline derivatives and Bz (1.9–500 µM) added. The cell viability was determined by luminescent assay using the CellTiter-Glo Kit (Promega Corporation, Madison, WI, USA) based on the ATP level. After 72 h of treatment, 20 μL of CellTiter-Glo solution was added per well, and cultures were kept for 2 min under agitation. The luminescent signal was read on the GloMax reader (Promega Corporation, Madison, WI, USA). The concentration of compounds that reduced 50% of cell viability (CC50) was calculated by linear regression. At least three independent assays were performed in duplicate.
Work on `Clc1ccc(-n2cc(C3=NCCS3)cn2)cc1` [Compound 2f, 2-(1-(4-chlorophenyl)-1H-pyrazol-4-yl)-4,5-dihydrothiazole] yielded a CC50 at 72 h of 91.7 ± 13.1 µM. With `c1ccc(-n2cc(C3=NCCS3)cn2)cc1` [Compound 2a, 2-(1-phenyl-1H-pyrazol-4-yl)-4,5-dihydrothiazole] the CC50 at 72 h was 187 ± 12.7 µM. For `Nc1c(C2=NCCS2)cnn1-c1ccc(Cl)c(Cl)c1` [Compound 1e, 2-(5-amino-1-(3,4-dichlorophenyl)-1H-pyrazol-4-yl)-4,5-dihydrothiazole], the CC50 at 72 h was > 500 µM. For `Nc1c(C2=NCCS2)cnn1-c1cccc(Cl)c1` [Compound 1b, 2-(5-amino-1-(3-chlorophenyl)-1H-pyrazol-4-yl)-4,5-dihydrothiazole], the CC50 at 72 h was > 500 µM.

Tested on: not given
Assay: not given
Conditions: not given
Work on `Clc1ccc(-n2cc(C3=NCCS3)cn2)cc1` [Compound 2f, 2-(1-(4-chlorophenyl)-1H-pyrazol-4-yl)-4,5-dihydrothiazole] yielded a melting point of 130 to 133 °C. With `c1ccc(-n2cc(C3=NCCS3)cn2)cc1` [Compound 2a, 2-(1-phenyl-1H-pyrazol-4-yl)-4,5-dihydrothiazole] the melting point was 112 to 114 °C. `Nc1c(C2=NCCS2)cnn1-c1ccc(Cl)c(Cl)c1` [Compound 1e, 2-(5-amino-1-(3,4-dichlorophenyl)-1H-pyrazol-4-yl)-4,5-dihydrothiazole] gave a melting point of 279 to 282 °C. Molecule `Nc1c(C2=NCCS2)cnn1-c1cccc(Cl)c1` [Compound 1b, 2-(5-amino-1-(3-chlorophenyl)-1H-pyrazol-4-yl)-4,5-dihydrothiazole] has a melting point of 186 to 189 °C.

Tested on: T. cruzi (strain Silvio X10/7)
Assay: not given
Design: method as in PMID 30001347
Conditions: 16 days treatment of infected Vero cell monolayers; cited from earlier work
In the case of `CC[C@@H]([C@H](C)O)n1ncn(-c2ccc(N3CCN(c4ccc(OC[C@@H]5CO[C@@](Cn6cncn6)(c6ccc(F)cc6F)C5)cc4)CC3)cc2)c1=O` [posaconazole], the “parasite relapse / clearance after prolonged treatment” value is given as “unable to achieve parasite clearance”.

Tested on: T. cruzi (Dm28c-Luc) trypomastigotes
Assay: microbe, parasite or virus in culture
Format: cell-based, Trypanosoma cruzi
Conditions: Trypanosoma cruzi, 24 h, Dm28c-Luc, 24 h, mean ± SD; read-out: Trypanocidal Activity Trypomastigotes IC50
Procedure: The screening assays were performed with T. cruzi clone Dm28c (TcI) genetically modified to express luciferase gene (Dm28c-Luc), kindly provided by Dr. Cristina Henriques. Trypomastigotes were isolated from T. cruzi-infected Vero cell monolayers (10:1 parasites/host cell ratio). On the 4th day post-infection (dpi), free trypomastigotes in the culture supernatant were harvested, and the number of parasites/mL was quantified in a Neubauer chamber.
The trypanocidal activity of the pyrazole-thiazoline derivatives was evaluated against trypomastigote and intracellular amastigote forms of T. cruzi (Dm28c-Luc). Tissue-derived trypomastigotes (1 × 10^6 parasites/well) were incubated with pyrazole-thiazoline derivatives and Bz in different concentrations (0.41–100 µM) for 24 h at 37 °C in a humidified atmosphere and 5% CO2. The parasite viability was determined by the addition of luciferin (300 µg/mL), followed by luminescence detection on the GloMax microplate reader (Promega Corporation, Madison, WI, USA).
(§1) After 72 h of treatment, luciferin (300 µg/mL) was added to the culture, and the viability of the parasites was assessed by reading the luminescent signal on the GloMax reader (Promega Corporation, Madison, WI, USA). Controls were also performed in non-toxic concentrations of DMSO (≤ 1%). The concentration that reduces the number of viable parasites by 50% (IC50) or 90% (IC90) was calculated by linear regression. The selectivity index (SI) was calculated as CC50/IC50 for each parasite form.
With `Clc1ccc(-n2cc(C3=NCCS3)cn2)cc1` [Compound 2f, 2-(1-(4-chlorophenyl)-1H-pyrazol-4-yl)-4,5-dihydrothiazole] the IC50 was 0.6 ± 0.3 µM. For `c1ccc(-n2cc(C3=NCCS3)cn2)cc1` [Compound 2a, 2-(1-phenyl-1H-pyrazol-4-yl)-4,5-dihydrothiazole], the IC50 was 1.1 ± 0.3 µM. In the case of `Nc1c(C2=NCCS2)cnn1-c1ccc(Cl)c(Cl)c1` [Compound 1e, 2-(5-amino-1-(3,4-dichlorophenyl)-1H-pyrazol-4-yl)-4,5-dihydrothiazole], the IC50 is reported as > 100 µM. For `Nc1c(C2=NCCS2)cnn1-c1cccc(Cl)c1` [Compound 1b, 2-(5-amino-1-(3-chlorophenyl)-1H-pyrazol-4-yl)-4,5-dihydrothiazole], the IC50 was 96.9 ± 3.1 µM.

Same assay, conditions: Trypanosoma cruzi; Dm28c-Luc, 24 h, mean ± SD; read-out: Trypanocidal Activity Trypomastigotes IC90
`Clc1ccc(-n2cc(C3=NCCS3)cn2)cc1` [Compound 2f, 2-(1-(4-chlorophenyl)-1H-pyrazol-4-yl)-4,5-dihydrothiazole] gave an IC90 of 13.3 ± 2.3 µM. In the case of `c1ccc(-n2cc(C3=NCCS3)cn2)cc1` [Compound 2a, 2-(1-phenyl-1H-pyrazol-4-yl)-4,5-dihydrothiazole], the IC90 is reported as 10.4 ± 1.1 µM. With `Nc1c(C2=NCCS2)cnn1-c1ccc(Cl)c(Cl)c1` [Compound 1e, 2-(5-amino-1-(3,4-dichlorophenyl)-1H-pyrazol-4-yl)-4,5-dihydrothiazole] the IC90 was > 100 µM. In the case of `Nc1c(C2=NCCS2)cnn1-c1cccc(Cl)c1` [Compound 1b, 2-(5-amino-1-(3-chlorophenyl)-1H-pyrazol-4-yl)-4,5-dihydrothiazole], the IC90 is reported as > 100 µM.

Same assay, conditions: selectivity index vs Vero cells
With `Clc1ccc(-n2cc(C3=NCCS3)cn2)cc1` [Compound 2f, 2-(1-(4-chlorophenyl)-1H-pyrazol-4-yl)-4,5-dihydrothiazole] the “Trypomastigotes SI (CC50 of Vero cells/IC50)” value (from here on “Trypomastigotes SI”) was 143.6. In the case of `c1ccc(-n2cc(C3=NCCS3)cn2)cc1` [Compound 2a, 2-(1-phenyl-1H-pyrazol-4-yl)-4,5-dihydrothiazole], the “Trypomastigotes SI” value is reported as 166.8. In the case of `Nc1c(C2=NCCS2)cnn1-c1ccc(Cl)c(Cl)c1` [Compound 1e, 2-(5-amino-1-(3,4-dichlorophenyl)-1H-pyrazol-4-yl)-4,5-dihydrothiazole], the “Trypomastigotes SI” value is reported as <5. In the case of `Nc1c(C2=NCCS2)cnn1-c1cccc(Cl)c1` [Compound 1b, 2-(5-amino-1-(3-chlorophenyl)-1H-pyrazol-4-yl)-4,5-dihydrothiazole], the “Trypomastigotes SI” value is reported as >5.2.

Tested on: T. cruzi (Dm28c-Luc) intracellular amastigotes
Assay: Trypanocidal activity against intracellular amastigotes in infected Vero cell monolayers
Format: cell-based, Trypanosoma cruzi
Conditions: Dm28c-Luc in Vero cells, 72 h, mean ± SD; read-out: Trypanocidal Activity Intracellular Amastigotes IC50
Procedure: The susceptibility of intracellular amastigotes to pyrazole-thiazoline derivatives (series 1 and 2) was evaluated using 24 h T. cruzi-infected Vero cell monolayers (10:1 parasite/host cell ratio). Then, the cultures were washed with PBS to remove non-internalized parasites, and 200 μL of fresh medium with a serial dilution of pyrazole-thiazoline derivatives and Bz (0.41–100 µM) was added for 72 h at 37 °C.
as §1
`Clc1ccc(-n2cc(C3=NCCS3)cn2)cc1` [Compound 2f, 2-(1-(4-chlorophenyl)-1H-pyrazol-4-yl)-4,5-dihydrothiazole] gave an IC50 of 7.6 ± 2.5 µM.

Same assay, conditions: Trypanosoma cruzi, Vero, 72 h, Dm28c-Luc in Vero cells, 72 h, mean ± SD; read-out: Trypanocidal Activity Intracellular Amastigotes IC50
In the case of `Clc1ccc(-n2cc(C3=NCCS3)cn2)cc1` [Compound 2f, 2-(1-(4-chlorophenyl)-1H-pyrazol-4-yl)-4,5-dihydrothiazole], the IC50 is reported as < 10 µM. In the case of `c1ccc(-n2cc(C3=NCCS3)cn2)cc1` [Compound 2a, 2-(1-phenyl-1H-pyrazol-4-yl)-4,5-dihydrothiazole], the IC50 is reported as 10.7 ± 2.2 µM. For `Nc1c(C2=NCCS2)cnn1-c1ccc(Cl)c(Cl)c1` [Compound 1e, 2-(5-amino-1-(3,4-dichlorophenyl)-1H-pyrazol-4-yl)-4,5-dihydrothiazole], the IC50 was > 100 µM. Molecule `Nc1c(C2=NCCS2)cnn1-c1cccc(Cl)c1` [Compound 1b, 2-(5-amino-1-(3-chlorophenyl)-1H-pyrazol-4-yl)-4,5-dihydrothiazole] has an IC50 of 95.7 ± 4.8 µM.

Same assay, conditions: Trypanosoma cruzi, Vero, pIC50 = −log IC50, Dm28c-Luc clone; read-out: Intracellular Amastigotes pIC50 (converted)
In the case of `Clc1ccc(-n2cc(C3=NCCS3)cn2)cc1` [Compound 2f, 2-(1-(4-chlorophenyl)-1H-pyrazol-4-yl)-4,5-dihydrothiazole], the IC50 is reported as ~10 µM. `c1ccc(-n2cc(C3=NCCS3)cn2)cc1` [Compound 2a, 2-(1-phenyl-1H-pyrazol-4-yl)-4,5-dihydrothiazole] showed an IC50 of 10.7 µM. For `Nc1c(C2=NCCS2)cnn1-c1ccc(Cl)c(Cl)c1` [Compound 1e, 2-(5-amino-1-(3,4-dichlorophenyl)-1H-pyrazol-4-yl)-4,5-dihydrothiazole], the IC50 was > 100 µM. `Nc1c(C2=NCCS2)cnn1-c1cccc(Cl)c1` [Compound 1b, 2-(5-amino-1-(3-chlorophenyl)-1H-pyrazol-4-yl)-4,5-dihydrothiazole] showed an IC50 of 97.7 µM.

Same assay, conditions: Trypanosoma cruzi; Dm28c-Luc in Vero cells, 72 h, mean ± SD; read-out: Trypanocidal Activity Intracellular Amastigotes IC90
For `Clc1ccc(-n2cc(C3=NCCS3)cn2)cc1` [Compound 2f, 2-(1-(4-chlorophenyl)-1H-pyrazol-4-yl)-4,5-dihydrothiazole], the IC90 was 33.5 ± 4.4 µM. For `c1ccc(-n2cc(C3=NCCS3)cn2)cc1` [Compound 2a, 2-(1-phenyl-1H-pyrazol-4-yl)-4,5-dihydrothiazole], the IC90 was 89 ± 2.6 µM. For `Nc1c(C2=NCCS2)cnn1-c1ccc(Cl)c(Cl)c1` [Compound 1e, 2-(5-amino-1-(3,4-dichlorophenyl)-1H-pyrazol-4-yl)-4,5-dihydrothiazole], the IC90 was > 100 µM. For `Nc1c(C2=NCCS2)cnn1-c1cccc(Cl)c1` [Compound 1b, 2-(5-amino-1-(3-chlorophenyl)-1H-pyrazol-4-yl)-4,5-dihydrothiazole], the IC90 was > 100 µM.

Same assay, conditions: selectivity index vs Vero cells
For `Clc1ccc(-n2cc(C3=NCCS3)cn2)cc1` [Compound 2f, 2-(1-(4-chlorophenyl)-1H-pyrazol-4-yl)-4,5-dihydrothiazole], the “Intracellular Amastigotes SI (CC50 of Vero cells/IC50)” value (“Intracellular Amastigotes SI” below) was 12.0. With `c1ccc(-n2cc(C3=NCCS3)cn2)cc1` [Compound 2a, 2-(1-phenyl-1H-pyrazol-4-yl)-4,5-dihydrothiazole] the “Intracellular Amastigotes SI” value was 17.4. In the case of `Nc1c(C2=NCCS2)cnn1-c1ccc(Cl)c(Cl)c1` [Compound 1e, 2-(5-amino-1-(3,4-dichlorophenyl)-1H-pyrazol-4-yl)-4,5-dihydrothiazole], the “Intracellular Amastigotes SI” value is reported as <5. In the case of `Nc1c(C2=NCCS2)cnn1-c1cccc(Cl)c1` [Compound 1b, 2-(5-amino-1-(3-chlorophenyl)-1H-pyrazol-4-yl)-4,5-dihydrothiazole], the “Intracellular Amastigotes SI” value is reported as 5.2.
